Assay results reported in patent US20140234365A1, “2-HYDROXYHIPPURIC ACID ANALOGS, AND METHODS FOR THEIR SYNTHESIS AND USE” (ALERE SAN DIEGO, INC., priority 2011, published 2014).

Tested on: anti-2-Hydroxyhippuric acid antibody
Experiment: Competitive immunoassay for detecting 2-hydroxyhippuric acid (microfluidic device, fluorescent latex particle conjugate)
Type: binding
Conditions: analyte diluted into pools of human plasma, fluorescence read in TRIAGE meter after >15 minutes
Description: A competitive assay for detecting 2-hydroxyhippuric acid in […] was developed using microfluidic devices manufactured at Alere San Diego, Inc. essentially as described in WO98/43739, WO98/08606, WO98/21563, and WO93/24231. An anti-2-Hydroxyhippuric acid antibody was developed by phage display using a hapten-KLH conjugate as immunogen. This antibody was conjugated to a 0.13 μm maleimide-functionalized latex particle via a free cysteine residue on the antibody. The detection reagent consisted of a 0.50 μm fluorescence energy transfer latex particle (essentially as described in U.S. Pat. Nos. 5,763,189, 6,238,931, and 6,251,687; and International Publication WO95/08772) made according to Example 6. […] (comprising 0.22% solids) of the antibody-particle conjugate was spotted onto the diagnostic lane of the microfluidic device, and 170 nL (comprising 0.4% solids) of the 2-Hydroxyhippuric acid-particle conjugate was applied to the device reaction chamber. Analytes were dissolved in deionized water, then diluted into pools of human plasma to achieve the desired final concentration. 210 μL of sample was applied to the device sample addition zone and allowed to run >15 minutes prior to reading the fluorescence in the TRIAGE (Biosite Incorporated) meter. A fluorescent signal was obtained by integrating the fluorescence as a function of distance from the device origin.

## O=C(O)CNC(=O)c1ccccc1O [2-Hydroxyhippuric acid, 2-hydroxyhippuric acid]
  concentration at which the assay detected the analyte: 10 µg/mL
